From patent US11504394B2, “Targeted ionophore-based metal delivery” (The Regents of the University of California, priority 2018, dated 2022)

Tests used:
[1] = Dynamic light scattering, colloidal aggregate formation; format: physicochemical
Experimental: To assess colloidal aggregate formation, Gal-Cu(gtsm) was dissolved in PBS (pH 7.4) to a final concentration of 1 mM. The hydrodynamic diameter (DH) of the formed colloidal particles were determined by dynamic light scattering (DLS) obtained on a Zetasizer® Nano Series (Malvern Instruments, UK) and reported as the number-weighted mean. Samples were filtered with a 0.2 μm syringe filter and measured with a disposable ZEN0040 cuvette. Peaks of varying sizes were found, indicating a polydisperse formation of Gal-Cu(gtsm) aggregates. Measurements were taken in triplicate. Error is reported as the standard deviation from three separate replicates.

[2] = Stability in aqueous solutions at different pH (UV-vis); format: physicochemical; conditions: pH=3 to 8
Experimental: All spectroscopic measurements were performed in 20 mM PBS, pH 7.4 unless otherwise indicated. Absorption spectra were acquired on a Varian Cary 50 spectrophotometer.

[3] = system: HepG2 cells; test: Confocal imaging with copper sensing CF4 fluorescent probe; format: cell-based; conditions: HepG2, 100 μM Gal-Cu(gtsm) or 2 μM Cu(gtsm), 3 hours
Experimental: Confocal fluorescence images were acquired with a Zeiss LSM710 laser-scanning microscope with a 20× objective lens. Excitation at 543 nm for CF4 was carried out with appropriate lasers, and emission was acquired from 550 to 650 nm. HepG2 cells were plated between 50-80% confluency in 8-well glass chamber slides with gelatin coating. Cells were incubated with either vehicle, Cu(gtsm), or Gal-Cu(gtsm) for 3 hours in low glucose DMEM. The media was then aspirated and replaced with CF4 or Ctrl-CF4-S2 (2 μM freshly diluted from a 1 mM stock solution) in DPBS with calcium and magnesium, then incubated at 37° C. for 30 minutes. The buffer was then replaced with fresh DPBS (+Ca, +Mg) for imaging. Image analysis and quantification was performed using ImageJ (National Institutes of Health). Mean fluorescence intensity was analyzed with a minimum threshold of 20 pixels and maximum threshold of 255 pixels.

[4] = system: liver tissue; test: Liver tissue histology, H&E staining; format: in vivo
Experimental: FVB-luc+ mice were injected i.p. with vehicle (50 μL 1:1 DMSO:DPBS), Cu(gtsm), or Gal-Cu(gtsm) at a 0.75 mg Cu/kg mouse dose. After six hours, mice were euthanized with CO2 asphyxiation followed by cervical dislocation and liver tissue was extracted. Liver sections were fixed in a 10% formalin in PBS solution and sent to Histowiz Inc. (Brooklyn, N.Y.) for further processing and hematoxylin & eosin staining.

[5] = system: alanine transaminase (ALT) activity; test: Serum alanine transaminase (ALT) assay; format: in vivo, mice; conditions: 6 hours, 0.75 mg Cu/kg
Experimental: (§1) Mice were immediately euthanized by cervical dislocation.
(§2) Liver lysate (TBARS Assay via TCA Method, Cayman Chemical) and serum (BUN Assay, Invitrogen; ALT Assay, Cayman Chemical) samples were processed according to manufacturer instructions; sample concentration was selected based on initial dilution screening to fall within linear range of the standard curve. All samples were analyzed in triplicate.

[6] = system: blood urea nitrogen (BUN); test: Blood urea nitrogen (BUN) assay on serum; format: in vivo, mice; conditions: 0.75 mg Cu/kg
Experimental: as §1, §2

[7] = system: ATP7B; test: Western blot of liver lysates, ATP7B; format: in vivo, mouse; conditions: 6 and 24 hours
Experimental: Frozen mouse livers were minced into 50 mg samples on dry ice and homogenized in ice-cold RIPA buffer (25 mM Tris.HCl pH 7.6, 150 mM NaCl, 1% NP-40, 1% sodium deoxycholate, 0.1% SDS) containing protease inhibitor cocktail with EDTA (Roche) at 100 mg/mL using a hand-held mechanical homogenizer. Homogenates were incubated on ice for 30 min and centrifuged at 12,000×g for 20 min at 4° C. The soluble protein lysates were collected from underneath the upper lipid layer with a pipette and transferred to new tubes. Protein concentration was determined using a detergent-compatible Bradford Assay (Pierce).
Protein lysates were denatured in NuPAGE lithium dodecyl sulfate sample buffer (Invitrogen) containing 10% v/v β-mercaptoethanol as a reducing agent. […] The membranes were washed 5 times for 5 minutes in TBST, then visualized using enhanced chemiluminescence (Western Lighting Plus for visualizing CCS and ATP7B, Perkin Elmer; Western Clarity Max for visualizing CTR1 and MT, Bio-Rad) recorded on a BioRad GelDoc imaging station. β-actin was probed to determine equal loading using anti-β-actin (sc-69879, Santa Cruz Biotechnology) and AlexaFluor 647-conjugated anti-mouse IgG (A31571, Molecular Probes) antibodies at 1:5000 and 1:2500 dilutions, respectively, with visualization using fluorescence recorded on a BioRad GelDoc imaging station.

[8] = system: ATP7B Cu export protein; test: Western blot ATP7B in high fat diet mice; format: in vivo
[9] = system: SOD; test: SOD assay in high fat diet mice; format: in vivo; conditions: vs untreated HFD mice
[10] = mouse, in vivo
Experimental: FVB-luc+ mice were heavily anesthetized and blood was collected via cardiac puncture. Mice were immediately euthanized by cervical dislocation. Tissues were harvested, rinsed twice with DPBS, snap-frozen under liquid nitrogen, and placed on dry ice in cryotubes and stored at −80° C. until analysis. Serum was isolated by allowing blood samples to coagulate for 1 hour at room temperature, centrifuging at 1,500 g for 15 minutes at 4° C., then collecting the serum supernatant. Samples were aliquoted, snap-frozen, and stored at −80° C. until analysis.
20-100 mg portions of the harvested tissues were digested in concentrated nitric acid (100 mg tissue/mL HNO3, BDH Aristar Ultra) at 95° C. for 2 h in 1.5 mL tubes (Sarstedt) with small holes poked in the caps with an 18G needle. After overnight incubation at room temperature, samples were diluted into freshly prepared 2% nitric acid and doped with a gallium internal standard (Inorganic Ventures, diluted from 1 ppm in 2% nitric acid to a 20 ppb final concentration). The copper content was determined by measuring ^63Cu using a Thermo Fisher iCAP-Qc ICP-MS in Kinetic Energy Discrimination (KED) mode. Measurements were normalized to a standard curve of known copper concentrations doped with 20 ppb Ga. The standard curve was diluted from CMS-5 (Inorganic Ventures).

CNC1=N[N+]2=CC=[N+]3N=C(NCCOCCOCCOC4OC(CO)C(O)C(O)C4NC(C)=O)[S][Cu-2]23[S]1 (stereo not shown) [Gal-Cu(gtsm)]
number-weighted hydrodynamic diameter ([1]; 1 mM in PBS (pH 7.4), DLS, error = standard deviation): 4.60±0.69 nm
colloid formation in aqueous buffer ([1]; aqueous buffer): forms colloids
stability of complex in aqueous buffers [2]: stable
CF4 fluorescence [3]: increased fluorescence
toxicity as indicated by liver histology and toxicity assays ([4]; 0.75 mg Cu/kg i.p.): non-toxic
H&E liver histology ([4]; 6 hours, 0.75 mg Cu/kg mouse): largely resemble those of the vehicle-treated control mice
serum ALT levels compared to vehicle control [5]: virtually the same
BUN levels [6]: not
ATP7B expression in liver [7]: increased
ATP7B expression [8]: reduced expression
SOD assay, anti-oxidant activity [9]: improved anti-oxidant activity
hepatic copper delivered relative to Cu(gtsm) [10]: ca. 4 times
time for hepatic copper stores to clear to basal levels ([10]; ip): 72 h
